Series [1] can be described thus: pKa determination by UV–vis acid–base titrations in water. The class given is physicochemical. The settings on record: aqueous phosphate and carbonate buffers; RH^2+/R^+ or MH^+/M; UV–vis titrations in water, chloride salts. The text has this:
Next, in our study of the stimuli-responsiveness of the “vermellogens”, we proceeded to verify the new analogues as pH-based molecular switches, by conducting UV–vis acid–base titrations in water for the compounds Ra–eH·2Cl. All the new “vermellogens” show similar π–π* main absorption bands centered at λ^1max = 366–377 nm at neutral or slightly acidic pH. An increase in the basicity of the solution produces the decrease of the aforementioned bands and the concomitant rise of new absorptions associated with the deprotonated compounds and centered at λ^2max = 460–475 nm. The pKa values obtained by the aforementioned UV–vis titrations for Ra–eH·2Cl are quite similar, showing no dependence on the substituent on the pyridinium N^+ atoms within their structures (Table 1 and Figures S115–S125). Furthermore, to evaluate the effect of the two different pyridinium heterocycles on the observed anomalous pKa’s, two analogues were prepared (Ma–bH·Cl), in which one of these moieties was substituted by a neutral phenyl ring.
4.2. pK a determination for Rb by UV-Vis
Figure S 116: UV-Vis spectra for the titration of R b·2Cl at 20 μM in NaH 2PO4/Na2HPO4, KHCO3/K2CO3 and Na2HPO4/Na2PO4 buffers. On the top right: Absorption of R b+ at λ = 474 nm plotted against pH. pH V (mL) of V (mL) of V (mL) of V (mL) of V (mL) of ABS log[A474-(measured) solution A solution B solution C solution D solution E (474 ARb2+)/(ARb1+- […]
Table S 4: Experimental data obtained for the UV-Vis titration of R b·2Cl at 20 μM in NaH2PO4/Na2HPO4, KHCO3/K2CO3 and Na2HPO4/Na2PO4 buffer. Solution A: 20 μM of R b·2Cl and 0.05 M of NaH2PO4. Solution B: 20 μM of R b·2Cl and 0.05 M of NaHPO4. Solution C: 20 μM of R b·2Cl and 0.05 M of Na2PO4. Solution D: 20 μM of R b·2Cl and 0.05 M of KHCO3. Solution E: 20 μM of R b·2Cl and 0.05 M of […]
4.4. pK a determination for Rc by UV-Vis
Figure S 119: UV-Vis spectra for the titration of R c·2Cl at 20 μM in NaH 2PO4/Na2HPO4, KHCO3/K2CO3 and Na2HPO4/Na2PO4 buffers. On the top right: Absorption of R c+ at λ = 466 nm plotted against pH. pH V (mL) of V (mL) of V (mL) of V (mL) of V (mL) of ABS log[A466-(measured) solution A solution B solution C solution D solution E (466 ARc2+)/(ARc+- […]
Table S 5: Experimental data obtained for the UV-Vis titration of R c·2Cl at 20 μM in NaH2PO4/Na2HPO4, KHCO3/K2CO3 and Na2HPO4/Na2PO4 buffer. Solution A: 20 μM of Rc·2Cl and 0.05 M of NaH2PO4. Solution B: 20 μM of R c·2Cl and 0.05 M of NaHPO4. Solution C: 20 μM of R c·2Cl and 0.05 M of Na2PO4. Solution D: 20 μM of R c·2Cl and 0.05 M of KHCO3. Solution E: 20 μM of R c·2Cl and 0.05 M of […]
4.6. pK a determination for Rd by UV-Vis
Figure S 122: UV-Vis spectra for the titration of R d·2Cl at 20 μM in NaH 2PO4/Na2HPO4, KHCO3/K2CO3 and Na2HPO4/Na2PO4 buffers. On the top right: Absorption of R d+ at λ = 475 nm plotted against pH. pH V (mL) of V (mL) of V (mL) of V (mL) of V (mL) of ABS log[A475-(measured) solution A solution B solution C solution D solution E (475 ARd2+)/(ARd1+- […]
Table S 6: Experimental data obtained for the UV-Vis titration of R d·2Cl at 20 μM in NaH2PO4/Na2HPO4, KHCO3/K2CO3 and Na2HPO4/Na2PO4 buffer. Solution A: 20 μM of R d·2Cl and 0.05 M of NaH2PO4. Solution B: 20 μM of R d·2Cl and 0.05 M of NaHPO4. Solution C: 20 μM of R d·2Cl and 0.05 M of Na2PO4. Solution D: 20 μM of R d·2Cl and 0.05 M of KHCO3. Solution E: 20 μM of R d·2Cl and 0.05 M of […]
4.8. pK a determination for Re by UV-Vis
Figure S 125: UV-Vis spectra for the titration of R e·2Cl at 20 μM in NaH 2PO4/Na2HPO4, KHCO3/K2CO3 and Na2HPO4/Na2PO4 buffers. On the top right: Absorption of R e+ at λ = 460 nm plotted against pH. pH V (mL) of V (mL) of V (mL) of V (mL) of V (mL) of ABS log[A460-(measured) solution A solution B solution C solution D solution E (460 ARe2+)/(ARe1+- […]
Table S 7: Experimental data obtained for the UV-Vis titration of R e·2Cl at 20 μM in NaH2PO4/Na2HPO4, KHCO3/K2CO3 and Na2HPO4/Na2PO4 buffer. Solution A: 20 μM of R e·2Cl and 0.05 M of […]

Series [2] in a line: Cell viability assay (WST-1) in human fibroblastic cell line. The class given is cell-based. The settings on record: human, HFF-1 fibroblast cells; HFF-1, 0.5 mM, 24 h, WST-1; read-out: cell viability (cell survival). The procedure:
(§1) To conclude with this part of our work on the molecular responsiveness of the “vermellogens,” we decided to substantiate whether the bis-pyridinium core in the compounds would have or not a viologen-like reversible redox behavior. Thus, cyclic voltamograms were recorded for RaH·2Cl (2 mM) in buffered aqueous solutions at pH = 2 (0.05 M H3PO4/NaH2PO4), 7 (0.05 M NaH2PO4/Na2HPO4), and 12 (0.05 M Na2HPO4/Na3PO4). Those shown both the acidic (RaH^2+) and basic (Ra^+) forms of the “red thread” owning non-reversible redox peaks (Figure 1b).
(§2) Fibroblast cells (HFF-1; ATTC® SCRC-1041TM) were maintained in Dulbecco’s modified eagle’s medium (DMEM) supplemented with 10% FBS and 1% P/S and kept at 37 °C in a humidified atmosphere containing 5% CO2 until their use. HFF-1 cells were seeded in 96 well-plates at an initial density of 10^4 cells/well and allowed to attach for 24 h at 37 °C. The following day, culture medium was removed, replenished by fresh medium (90 µl) and cells were exposed to different concentration of R aH·2Cl and MV (10 µl; final concentrations 0.01, 0.05, 0.1, 0.5 and 1 mM). Control conditions included cells cultured in culture medium, but in absence of compound. Cells were further incubated for 24 h at 37°C and cell viability was monitored using the tetrazolium salt (WST-1) method.6 Absorbance at 450 nm was measured using a Synergy HTX Plate Reader (Biotek, Winooski, VT, USA) and the percent of cell viability (%) was calculated as follows:
(§3) Viability (%) = […]
(§4) Where Asample and Anegative control depict those absorbance values measured at 450 nm in presence and in absence of compound, respectively. All conditions were tested by triplicate in two independent experiments. Data were expressed as mean ± standard deviation (SD). Statistical analysis was performed by two-ways and one-way ANOVA with Tukey’s LSD post hoc test using IBM SPSS Statistics version 23. A p ≤ 0.05 was considered statistically significant.
(§5) Figure S 138: Compounds tested in WST-1 assay for cell viability.
(§6) 6 Carballo-Pedrares, N.; Kattar, A.; Concheiro, A.; Alvarez-Lorenzo, C.; Rey-Rico, Niosomes-based gene delivery systems for effective transfection of human mesenchymal stem cells. A. Matter. Sci. Eng. 2021, 18, 112307.
On the technique in general: Tetrazolium dyes change colour on reduction, which living cells bring about.

A further series relates to HFF-1 cells. The description is as above. The class given is cell-based. As to conditions: HFF-1, 1 mM, 24 h, WST-1. How it is done:
as §1, §2, §3, §4, §5, §6

What is called pKa is the pH at which an ionisable group is half protonated. As usually defined, the viability is the share of living cells, or the viability signal relative to a control.

On to `C[n+]1ccc(/C=N/Nc2cc[n+](C)cc2)cc1` [RaH·2X, (E)-1-methyl-4-((2-(1-methylpyridin-1-ium-4-yl)hydrazineylidene)methyl)pyridin-1-ium], for which, in series [1], the pKa worked out at 9. Besides, the viability at 24 h, 0.5 mM in series [2] was about 90%. Further, in the series with HFF-1 cells, the “cell survival at the highest concentration tested” value is “slight reduction on cell survival”.

For the origin of these results see article PMC9682480, ““Vermellogens” and the Development of CB[8]-Based Supramolecular Switches Using pH-Responsive and Non-Toxic Viologen Analogues” (Journal of the American Chemical Society, 2022).
